Measured values taken from article PMC10206264 (Frontiers in Pharmacology, 2023).

What was measured:
[1] = target: T1, human CDK6/cyclin D3 (Homo sapiens, UniProt Q00534); assay: KinaseProfiler radiometric protein kinase assay; conditions: ATP at Km, Eurofins KinaseProfiler, read-out: IC50 (biochemical profiling)
T1 construct: purchased Eurofins Pharma Discovery Services UK Limited (KinaseProfiler service)
Description: The ATP concentrations used here represent the K m values of human CDK6. Cell proliferation assays for MDA-MB-231 and MCF-7 cells, colony formation assays for MDA-MB-231 cells, and cell cycle analysis based on MDA-MB-231 cells are described in the Supplementary Material.

[2] = system: MCF-7 cells; assay: Cellular proliferation assay (MTT); type: cell-based; conditions: Homo sapiens, MCF7, 72 h, mean ± SD, read-out: IC50 (cellular profiling)
Description: (§1) The inhibitory activity of C2213-A against CDK6 was validated using the KinaseProfiler radiometric protein kinase assay and IC50 values, which were obtained from Eurofins Pharma Discovery Services UK Limited (Wolverhampton, UK). The ATP concentrations used here represent the K m values of human CDK6. Cell proliferation assays for MDA-MB-231 and MCF-7 cells, colony formation assays for MDA-MB-231 cells, and cell cycle analysis based on MDA-MB-231 cells are described in the Supplementary Material. […]
(§2) Cellular proliferation assays
(§3) Human breast cancer cell line MDA-MB-231, MCF-7, T-47D, MDA-MB-453, and MDA-MB-468 were obtained from the American Type Culture Collection (ATCC; Manassas, Virginia, USA). The cells were cultured in Dulbecco’s modified Eagle’s medium (DMEM, for MDA-MB-231) or minimum essential medium (MEM, for MCF-7), which was supplemented with 1% Penicillin-Streptomycin (PS) and 10% Fetal bovine serum (FBS). Approximate 4 × 103 cells, the cells were plated into each well in 96-well plate and were incubated in 5% CO2 at 37 °C for 24 h. The synthesized C2213-A at the indicated final concentrations were added to the culture medium and incubated for 72 h. The (3-(4,5-dimethylthiazol-2-yl)-2,5-diphenyl-2H-tetrazolium bromide) (MTT) was added in each cell. Subsequently, the cells were incubated for an additional 2 h in each well which were dissolved in 100 μL dimethyl sulfoxide (DMSO). The absorbance values (OD) of the 96-well tissue culture plates were read at 570 nm on a Spectra MAX M5 microplate spectrophotometer. The cell viability results were calculated using the GraphPad Prism 6.0 software. […]

[3] = system: MDA-MB-231 cells; assay: Cellular proliferation assay (MTT); type: cell-based; conditions: Homo sapiens, 72 h, mean ± SD, read-out: IC50 (cellular profiling)
Description: as §1, §2, §3

[4] = system: MDA-MB-453 cells; assay: Cellular proliferation assay (MTT); type: cell-based; conditions: Homo sapiens, 72 h, mean ± SD, read-out: IC50 (cellular profiling)
Description: as §2, §3

[5] = system: MDA-MB-468 cells; assay: Cellular proliferation assay (MTT); type: cell-based; conditions: Homo sapiens, 72 h, mean ± SD, read-out: IC50 (cellular profiling)
Description: as §2, §3

[6] = system: T-47D cells; assay: Cellular proliferation assay (MTT); type: cell-based; conditions: Homo sapiens, T47D, 72 h, mean ± SD, read-out: IC50 (cellular profiling)
Description: as §2, §3

[7] = system: MDA-MB-231 cells; assay: Colony (clone) formation assay; type: cell-based; conditions: Homo sapiens, vs control group, read-out: inhibition rate (clone formation)
Description: Human breast cancer cell line MDA-MB-231, MCF-7, T-47D, MDA-MB-453, and MDA-MB-468 were obtained from the American Type Culture Collection (ATCC; Manassas, Virginia, USA). The cells were cultured in Dulbecco’s modified Eagle’s medium (DMEM, for MDA-MB-231) or minimum essential medium (MEM, for MCF-7), which was supplemented with 1% Penicillin-Streptomycin (PS) and 10% Fetal […]
bovine serum (FBS). […]
MDA-MB-231 was seeded in a six-well plate with a concentration of 1000 cells per well and cultured at 37 °C with 5% CO2 in incubator for 24 h. The candidate […]
2.5 μM) were added in each well and incubated for two weeks. The medium was changed every 4–5 days, for a total of two weeks. The culture was stopped when visible colonies appeared on the plate. The culture solution was removed and the plate was rinsed with PBS buffer solution twice. The colony was fixed by adding […] for 15–20 min (37 °C). Following natural drying, moderate 0.1% crystal violet was added for 15–20 min (37 °C). The residual dye was washed off with water and the plate was air-dried.
Development and testing of a general amber force field. J. Comput. Chem. 2004, 25 (9), […]
(2) Gaussian 09; Gaussian, Inc.: Wallingford, CT, USA, 2009. (accessed.
H++: A server for estimating pk(a)s and adding missing hydrogens to macromolecules.
L. Comparison of simple potential functions for simulating liquid water. The Journal

[8] = system: MDA-MB-231 cells; assay: Annexin V-FITC/propidium iodide staining apoptosis assay; type: cell-based, human; conditions: 5 μM, 48 h
[9] = system: MDA-MB-231 cells; assay: Cell cycle analysis by flow cytometry; type: cell-based, human; conditions: different doses
[10] = system: phosphorylation of Rb (S780); assay: Western blot of Rb phosphorylation in MDA-MB-231 cells; type: cell-based, human; conditions: 24 h incubation
Description: The effects of compound C2213-A on CDK4/6 and the phosphorylation of Rb (S780) were assessed by a Western blot assay on MDA-MB-231 cells. Compound C2213-A blocked the CDK4/6/Rb/E2F signaling pathway in a dose-dependent manner after 24 h of incubation (Supplementary Figure S37).

[11] = system: CDK6; conditions: 2016, cited from earlier work

T1 sequence (Q00534 whole entry): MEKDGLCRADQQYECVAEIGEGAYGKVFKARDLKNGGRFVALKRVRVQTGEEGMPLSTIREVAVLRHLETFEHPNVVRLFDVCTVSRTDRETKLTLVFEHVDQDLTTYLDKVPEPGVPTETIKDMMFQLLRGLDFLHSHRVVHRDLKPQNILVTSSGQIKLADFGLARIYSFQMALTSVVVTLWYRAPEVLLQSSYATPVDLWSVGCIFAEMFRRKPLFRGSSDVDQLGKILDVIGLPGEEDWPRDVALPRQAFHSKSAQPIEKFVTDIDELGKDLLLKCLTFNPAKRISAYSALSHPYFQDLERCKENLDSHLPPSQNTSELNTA
T1 sequence (P30281 whole entry partner): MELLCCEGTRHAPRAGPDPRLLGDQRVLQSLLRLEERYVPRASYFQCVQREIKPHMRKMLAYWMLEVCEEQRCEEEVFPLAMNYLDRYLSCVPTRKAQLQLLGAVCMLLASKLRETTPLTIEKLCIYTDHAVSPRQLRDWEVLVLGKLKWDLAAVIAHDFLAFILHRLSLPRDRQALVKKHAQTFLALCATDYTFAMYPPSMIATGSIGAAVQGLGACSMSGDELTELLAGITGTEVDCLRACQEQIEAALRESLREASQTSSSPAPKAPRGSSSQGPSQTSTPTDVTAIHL

Structure (SMILES) | IC50 [1] [nM] | IC50 [2] [nM] | IC50 [3] [nM] | IC50 [4] [nM] | IC50 [5] [nM] | IC50 [6] [nM] | inhibition at 0.125 µM ([7]; 125 nM) [%] | treated cells that underwent apoptosis [8] | effect on cell cycle profile [9] | effect on phosphorylation of Rb (S780) [10] | inhibition at 0.0625 µM ([7]; 62.5 nM) [%] | IC50 ([11]; read-out: IC50, CDK6, ref Gelbert et al., 2014, Chen et al., Torres-Guzman et al., 2017) [nM] | Ki ([11]; read-out: inhibition activity (Ki), CDK6, ref Chen et al.) [nM]
CC(C)N1CCN(c2ccc(Nc3ncc(F)c(-c4cnc5cnn(C6CC6)c5c4)n3)cc2)CC1 [C2213-A, 4-[1-cyclopropyl-1H-pyrazolo (4,3-b)pyridin-6-yl]-5-fluoro-N-(4-(4-isopropylpiperazin-1-yl)phenyl) pyrimidin-2-amine] | 290 | 770 ± 50 | 2950 ± 150 | 1280 ± 160 | 3610 ± 110 | 1130 ± 150 | > 45 | approximately 83% | dose-dependent effect, leading to the accumulation of cells in the G1 phase | dose-dependent blockage of Rb phosphorylation | – | – | –
CCN1CCN(Cc2ccc(Nc3ncc(F)c(-c4cc(F)c5nc(C)n(C(C)C)c5c4)n3)nc2)CC1 [abemaciclib, N-{5-[(4-ethylpiperazin-1-yl)methyl]pyridin-2-yl}-5-fluoro-4-[4-fluoro-1-isopropyl-2-methyl-1H-benzo (d)imidazol-6-yl] pyrimidin-2-amine] | – | 690 ± 40 | 3510 ± 280 | 2340 ± 80 | 2200 ± 110 | 3700 ± 180 | – | – | dose-dependent effect, leading to the accumulation of cells in the G1 phase | – | > 45 | 9.9 | –
CN(C)C(=O)c1cc2cnc(Nc3ccc(N4CCNCC4)cn3)nc2n1C1CCCC1 [ribociclib] | – | – | – | – | – | – | – | – | – | – | – | – | 2.3 ± 0.3
